In series [1] the target is T1, Human neutrophil elastase (Homo sapiens, UniProt P08246).
T1 construct: purchased Calbiochem 324681
T1 sequence (P08246 30-247 limits assumed): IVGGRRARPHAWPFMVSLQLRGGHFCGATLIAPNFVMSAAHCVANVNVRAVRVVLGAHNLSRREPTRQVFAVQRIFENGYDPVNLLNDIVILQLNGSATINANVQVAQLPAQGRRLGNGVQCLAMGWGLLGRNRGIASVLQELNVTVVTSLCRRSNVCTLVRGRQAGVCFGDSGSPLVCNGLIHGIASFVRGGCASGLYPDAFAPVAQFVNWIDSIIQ
The experiment in a line: Human Neutrophil Elastase Assay. Particulars: substrate MeOSuc-Ala-Ala-Pro-Val-AMC 250 μM, pH 7.5, room temperature. Format: biochemical. An excerpt:
Human Neutrophil Elastase Assay

In series [2] the target is T2, neutrophil elastase in human plasma (Homo sapiens, UniProt P08246).
T2 construct: The stimulated blood is centrifuged to generate the neutrophil elastase enriched plasma; from tissue; host or cells: plasma from zymosan-stimulated citrated whole blood of healthy human donors
T2 sequence (P08246 30-267): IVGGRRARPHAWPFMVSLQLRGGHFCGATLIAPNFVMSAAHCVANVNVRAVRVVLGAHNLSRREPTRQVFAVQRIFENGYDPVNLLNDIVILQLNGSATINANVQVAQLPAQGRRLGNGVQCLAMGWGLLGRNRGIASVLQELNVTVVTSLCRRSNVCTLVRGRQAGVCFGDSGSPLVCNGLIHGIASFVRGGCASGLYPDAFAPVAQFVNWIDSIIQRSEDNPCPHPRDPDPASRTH
The experiment in a line: Neutrophil elastase inhibitory activity in human plasma. Format: biochemical. Particulars: zymosan-stimulated human plasma, substrate MeOSuc-Ala-Ala-Pro-Val-AMC 250 μM. The protocol: Assay for the Determination of Neutrophil Elastase Inhibitory Activity in Human Plasma
Citrated blood from human healthy donors is mixed with zymosan suspension and incubated at room temperature. This leads to the stimulation of neutrophils and the release of neutrophil elastase into the plasma. The stimulated blood is centrifuged to generate the neutrophil elastase enriched plasma.
• A single 45 ml blood sample is taken into a 50 ml tube containing citrate (3.13%, 5 mL) and the tube is gently inverted 4 times. • Immediately after blood sampling, zymosan working solution (5 mL) is added. • After the addition of zymosan working solution, the tubes are capped, mixed gently and incubated at 22° C. for 15 min on a shaker at 20 rpm. • Make 10 ml aliquots after the incubation time. • Centrifuge the 15 ml tubes at 800 g for 15 min at 4° C. in a Jouan centrifuge. • Harvest the plasma and make 1-5 ml aliquots. • Store the plasma at −80° C.
A dose response curve is generated to calculate the EC50 of the inhibitor. The analysis of the data is performed by the calculation of the percentage of fluorescence in the presence of the test compound compared to the fluorescence of the vehicle control after subtracting the background fluorescence: An inhibitor of the neutrophil elastase enzyme will give values between 100% control (no inhibition) and 0% control (complete inhibition).

The nature of series [3]: Metabolic stability with human liver microsomes. Format: in vitro ADME. Particulars: pooled human liver microsomes, pH 7.6; human liver microsomes 1 mg/ml, 1 μM compound, 37° C., NADPH; read-out: t1/2 INVITRO.
Series [4] is described as follows: Drug transport across human Caco-2 cells. Format: in vitro ADME. The settings on record: pH 7.2, 37° C.; for Papp A→B at 10 µM: apical-to-basal, read-out: PEAB; for Papp B→A at 10 µM: basal-to-apical, read-out: PEBA. An excerpt: Assay for Determination of Drug Transport Across Human Caco-2 Cells
The assay provides information on the potential of a compound to pass the cell membrane, on the extent of oral absorption as well as on whether the compound is actively transported by uptake and/or efflux transporters. For the measurement of permeability across polarized, confluent human cancer colon carcinoma cells 2 (Caco-2) cell monolayers grown on permeable filter supports are used as the in vitro absorption model.
Apparent permeability coefficients (PE) of the compounds across the Caco-2 monolayers are measured (pH 7.2, 37° C.) in apical-to-basal (AB) (absorptive) and basal-to-apical (BA) (secretory) transport direction. AB permeability (PEAB) represents drug absorption from the intestine into the blood and BA permeability (PEBA) drug secretion from the blood back into the intestine via both passive permeability as well as active transport mechanisms mediated by efflux and uptake transporters that are expressed on the Caco-2 cells. The compounds are assigned to permeability/absorption classes by comparison of the AB permeabilities with the AB permeabilities of reference compounds with known in vitro permeability and oral absorption in the human. Identical or similar permeabilities in both transport directions indicate passive permeation, vectorial permeability points to additional active transport mechanisms. […] Active transport is concentration-dependently saturable.
Caco-2 cells (1-2*10^5 cells/cm^2 area) are seeded on filter inserts (Costar transwell polycarbonate or PET filters, 0.4 μm pore size) and cultured (DMEM) for 10 to 25 days. Compounds are dissolved in appropriate solvent (like DMSO, 1-20 min stock solutions). Stock solutions are diluted with HTP-4 buffer (128.13 min NaCl, 5.36 min KCl, 1 mM MgSO4, 1.8 min CaCl2, 4.17 min NaHCO3, 1.19 min Na2HPO4×7H2O, 0.41 mM NaH2PO4×H2O, 15 min HEPES, 20 min glucose, pH 7.2) to prepare the transport solutions (typically 10 μM compound, final DMSO<=0.5%). The transport solution (TL) is applied to the apical or basolateral donor side for measuring A-B or B-A permeability (3 filter replicates), respectively. The receiver side contains HTP-4 buffer supplemented with 2% BSA. Samples are collected at the start and end of experiment from the donor and at various time intervals for up to 2 hours also from the receiver side for concentration measurement by LC-MS/MS or scintillation counting. Sampled receiver volumes are replaced with fresh receiver solution.
On the technique in general: Caco-2 cells form a polarised layer with tight junctions and transporters.

A further series in a line: Aqueous solubility. Format: physicochemical. The settings on record: McIlvaine buffer pH 6.8 containing 2.5% DMSO, kinetic from dmso stock, McIlvaine buffer pH 6.8, 2.5% DMSO, 24 h shaking. On the procedure: Assay for Determination of Aqueous Solubility
Starting from a 10 min DMSO stock solution, aliquots are diluted with acetonitrile/water (1/1) and McIlvaine buffer pH 6.8, respectively. After 24 h of shaking, the solutions or suspensions are filtered and analyzed by LC-UV. The amount dissolved in buffer is compared to the amount dissolved in the acetonitrile/water (1/1) solution. Solubility is measured from 0.001 to 0.125 mg/ml at a DMSO concentration of 2.5%. If more than 90% of the compound is dissolved in buffer, the value is marked with “>”.

The values below come from patent US9440930B2, “Substituted bicyclic dihydropyrimidinones and their use as inhibitors of neutrophil elastase activity” (Boehringer Ingelheim International GmbH, priority 2014, dated 2016).

The structures appear in SMILES notation. pEC50, pIC50: −log10 of the molar value. ≈ marks a conversion by molar mass, not a printed value.

In general, pIC50 refers to −log10 of the IC50, conventionally taken in molar units. Higher therefore signals a small IC50. In general, pEC50 refers to −log10 of the EC50, conventionally taken in molar units. A word on the solubility: it is the dissolved amount per volume that the medium holds. High values mean a readily soluble substance, low ones a poorly soluble substance. Consider `CN1C(=O)N(c2cccc(C(F)(F)F)c2)C2=C(C(=O)CCC2)C1c1ccc(C#N)cc1[S+](C)[O-]` (single isomer, unassigned) [Example 2.1A, 3-Methanesulfinyl-4-[3-methyl-2,5-dioxo-1-(3-trifluoromethyl-phenyl)-1,2,3,4,5,6,7,8-octahydro-quinazolin-4-yl]-benzonitrile], for which the negative logarithm of the IC50 (pIC50) in series [1] is more than 9.00. In series [2], this molecule had a pEC50 of more than 9.00. In addition, in series [3], the half-life at 1 μM was determined as 0.967 h. In series [4], the Papp A→B at 10 µM is 4.1 ×10⁻⁶ cm/s and the Papp B→A at 10 µM worked out at 58 ×10⁻⁶ cm/s. In “Aqueous solubility”, this molecule came in with a solubility at 24 h of 65 µg/mL (≈ 133 µM).

As for `CN1C(=O)N(c2cccc(C(F)(F)F)c2)C2=C(C(=O)CCC2)C1c1ccc(C#N)cc1S(=O)(=O)CCO` (stereo not drawn) [Example 4.3], the pIC50 in series [1] is 8.96. Moreover, the pEC50 in series [2] is 8.70. Moreover, the half-life at 1 μM in series [3] stood at 2.17 h. In series [4], the Papp A→B at 10 µM was 10 ×10⁻⁶ cm/s and the Papp B→A at 10 µM worked out at 120 ×10⁻⁶ cm/s. For the same molecule, in “Aqueous solubility”, the concentration in solution (solubility at 24 h) came to 62 µg/mL (≈ 116 µM).

Molecule `CS(=O)(=O)c1cc(C#N)ccc1C1C2=C(CCCC2=O)N(c2cccc(C(F)(F)F)c2)C(=O)N1CCO` (stereo not drawn) [Example 6, 4-[3-(2-Hydroxy-ethyl)-2,5-dioxo-1-(3-trifluoromethyl-phenyl)-1,2,3,4,5,6,7,8-octahydro-quinazolin-4-yl]-3-methanesulfonyl-benzonitrile] gave a pIC50 in series [1] of more than 9.00. In series [2], the pEC50 was 9.00. Further, the half-life at 1 μM in series [3] was more than 2.17 h. Moreover, in series [4], the Papp A→B at 10 µM was determined as 3.9 ×10⁻⁶ cm/s and the Papp B→A at 10 µM is 68 ×10⁻⁶ cm/s. The same molecule yielded a solubility at 24 h in the series “Aqueous solubility” of 72 µg/mL (≈ 135 µM).
